Like-named read-outs stand apart in the source and are kept apart here.
Key:
[1] = molecular target: T1, bovine inositol monophosphatase (bovine enzyme, source not specified) (Bos taurus, UniProt P20456); experiment: Inhibition of bovine inositol monophosphatase (parallel comparison); format: biochemical; conditions: parallel experiment
T1 sequence (P20456 1-277): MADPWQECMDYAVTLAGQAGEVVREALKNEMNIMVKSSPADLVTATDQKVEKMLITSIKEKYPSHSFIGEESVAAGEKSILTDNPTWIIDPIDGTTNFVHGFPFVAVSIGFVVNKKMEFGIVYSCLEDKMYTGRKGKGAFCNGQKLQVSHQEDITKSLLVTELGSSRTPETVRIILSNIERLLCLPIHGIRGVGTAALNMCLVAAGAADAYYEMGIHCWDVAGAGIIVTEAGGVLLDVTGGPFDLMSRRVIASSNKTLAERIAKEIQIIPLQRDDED
Procedure: (§1) All comparisons are from data obtained in parallel experiments carried out in this study.
One unit of enzyme activity represents 1 μmol of substrate hydrolysed/min, at 37° C. […] Kinetic analyses were performed as described previously [Gee et al., supra].

[2] = molecular target: T2, recombinant human brain inositol monophosphatase (IMP), SEQ. ID NO. 2, expressed in E. coli BL21-DE3 (Homo sapiens, UniProt P29218); experiment: Kinetics and inhibition of recombinant human inositol monophosphatase ([14C]inositol release from DL-Ins(1)P)
T2 sequence (P29218 1-277): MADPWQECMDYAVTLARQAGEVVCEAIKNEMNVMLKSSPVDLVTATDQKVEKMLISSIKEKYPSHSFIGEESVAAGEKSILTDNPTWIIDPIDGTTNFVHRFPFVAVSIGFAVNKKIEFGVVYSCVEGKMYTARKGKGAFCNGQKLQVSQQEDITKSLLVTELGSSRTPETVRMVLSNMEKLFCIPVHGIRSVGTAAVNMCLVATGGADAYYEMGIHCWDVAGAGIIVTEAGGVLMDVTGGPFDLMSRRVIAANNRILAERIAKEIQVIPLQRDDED
Procedure: Initial rates determined with several substrate concentrations were fitted to a Michaelis-Menten expression by non-linear least-squares regression analysis. […] Bovine brain values are as reported in Gee et al., supra, but confirmed here.
as §1
One unit of enzyme activity represents 1 μmol of substrate hydrolysed/min, at 37° C. Protein concentrations were determined by the method of Bradford [Bradford, M., (1976), Anal. Biochem., 72, pp. 248-252]. Kinetic analyses were performed as described previously [Gee et al., supra].

[3] = molecular target: T3, native bovine brain inositol monophosphatase (Bos taurus, UniProt P20456); conditions: bovine brain enzyme, as reported in Gee et al., but confirmed here, cited from earlier work
T3 construct: both the native and recombinant bovine enzymes; from tissue; host or cells: bovine brain
T3 sequence (P20456 1-277): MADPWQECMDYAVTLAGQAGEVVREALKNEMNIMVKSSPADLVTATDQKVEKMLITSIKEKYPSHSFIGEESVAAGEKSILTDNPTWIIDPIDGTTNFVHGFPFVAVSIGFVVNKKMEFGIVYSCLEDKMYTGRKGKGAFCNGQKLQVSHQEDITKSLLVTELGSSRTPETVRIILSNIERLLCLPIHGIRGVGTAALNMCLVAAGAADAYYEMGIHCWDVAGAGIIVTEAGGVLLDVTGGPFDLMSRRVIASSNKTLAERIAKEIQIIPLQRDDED

[4] = substrate: O=P(O)(O)O[C@@H]1[C@H](O)[C@H](O)[C@@H](O)[C@H](O)[C@H]1O; experiment: purified protein, by the assay type; conditions: mean ± S.E.M. (n=3)

`O=P(O)(O)O[C@H]1CC[C@H](O)C[C@H]1O` [1S-phosphoryloxy-2R,4S-dihydroxycyclohexane] gave a Ki ([1]; competitive inhibitor, read-out: apparent Ki) of 1.1 µM and a Ki [2] of 2.7 µM.

`O=P(O)(O)O` [Pi] showed a Ki ([1]; read-out: Ki (Pi)) of 500 µM and a Ki ([2]; read-out: Ki (Pi), competitive inhibition, recombinant human IMP) of 140 µM.

For `O=P(O)(O)O[C@@H]1[C@H](O)[C@H](O)[C@@H](O)[C@H](O)[C@H]1O` (relative stereo) [DL-Ins(1)P], the Vmax ([3]; substrate DL-Ins(1)P) is listed as 13.3 ± 0.9 μmol/min per mg of protein and the Km ([3]; read-out: Km for DL-Ins(1)P) is listed as 160 ± 20 µM.

B1: recombinant human brain inositol monophosphatase (IMP), SEQ. ID NO. 2, expressed in E. coli BL21-DE3 (Homo sapiens) (protein)
chain: MADPWQECMDYAVTLARQAGEVVCEAIKNEMNVMLKSSPVDLVTATDQKVEKMLISSIKEKYPSHSFIGEESVAAGEKSILTDNPTWIIDPIDGTTNFVHRFPFVAVSIGFAVNKKIEFGVVYSCVEGKMYTARKGKGAFCNGQKLQVSQQEDITKSLLVTELGSSRTPETVRMVLSNMEKLFCIPVHGIRSVGTAAVNMCLVATGGADAYYEMGIHCWDVAGAGIIVTEAGGVLMDVTGGPFDLMSRRVIAANNRILAERIAKEIQVIPLQRDDED
With B1 the Km ([4]; other: human recombinant enzyme, 37° C.) was 75 ± 3 µM.

B2: native human platelet-derived inositol monophosphatase (Homo sapiens) (protein)
chain: MADPWQECMDYAVTLARQAGEVVCEAIKNEMNVMLKSSPVDLVTATDQKVEKMLISSIKEKYPSHSFIGEESVAAGEKSILTDNPTWIIDPIDGTTNFVHRFPFVAVSIGFAVNKKIEFGVVYSCVEGKMYTARKGKGAFCNGQKLQVSQQEDITKSLLVTELGSSRTPETVRMVLSNMEKLFCIPVHGIRSVGTAAVNMCLVATGGADAYYEMGIHCWDVAGAGIIVTEAGGVLMDVTGGPFDLMSRRVIAANNRILAERIAKEIQVIPLQRDDED
Work on B2 yielded a Km ([4]; other: human platelet enzyme, 37.0 °C) of 108 ± 3 µM.

B3: recombinant bovine inositol monophosphatase (Bos taurus) (protein)
chain: MADPWQECMDYAVTLAGQAGEVVREALKNEMNIMVKSSPADLVTATDQKVEKMLITSIKEKYPSHSFIGEESVAAGEKSILTDNPTWIIDPIDGTTNFVHGFPFVAVSIGFVVNKKMEFGIVYSCLEDKMYTGRKGKGAFCNGQKLQVSHQEDITKSLLVTELGSSRTPETVRIILSNIERLLCLPIHGIRGVGTAALNMCLVAAGAADAYYEMGIHCWDVAGAGIIVTEAGGVLLDVTGGPFDLMSRRVIASSNKTLAERIAKEIQIIPLQRDDED
Work on B3 yielded a Km ([4]; other: bovine recombinant enzyme, 37.0 °C) of 120 ± 7 µM.

From patent US5710015A, “cDNA cloning of inositol monophosphatase” (Merck, Sharp & Dohme, Ltd., priority 1992, dated 1998)
